US5202315A, “Cephalosporin compounds” (Lucky, Ltd., priority 1989, dated 1993)
≈ marks a conversion by molar mass, not a printed value. Read-outs that look alike come from different tables or passages of the source.

How the values were obtained:
[1] = tested on: Acinetobacter calcoaceticus ATCC 15473; assay: Antibacterial activity, MIC; format: cell-based; details: ATCC15473, ATCC 15473, agar two-fold dilution, 37° C., 20 hours, read-out: MIC
Description: (§1) Also, the in vitro antibacterial activity was determined by the by a two-fold dilution method as described below:
(§2) That is, the two-fold serial dilutions of the compound were made dispersed in Muller-Hinton agar medium. 2 μl of standard test strain which had the 10^7 CFU per ml was inoculated on the medium, and was incubated at 37° C. for 20 hours.

[2] = tested on: Bacillus cereus ATCC 11778; assay: Antibacterial activity, MIC; format: cell-based; details: ATCC11778, ATCC 11778, agar two-fold dilution, 37° C., 20 hours, read-out: MIC
Description: as §1, §2

[3] = tested on: Bacillus megaterium ATCC 9885; assay: Antibacterial activity, MIC; format: cell-based; details: Priestia megaterium, ATCC9885; ATCC 9885; agar two-fold dilution, 37° C., 20 hours; read-out: MIC
Description: as §1, §2

[4] = tested on: Citrobacter freundii ATCC 8090; assay: Antibacterial activity, MIC; format: cell-based; details: ATCC8090, ATCC 8090, agar two-fold dilution, 37° C., 20 hours, read-out: MIC
Description: as §1, §2

[5] = tested on: Enterobacter aerogenes ATCC 29751; assay: Antibacterial activity, MIC; format: cell-based; details: Klebsiella aerogenes, ATCC29751; ATCC 29751; agar two-fold dilution, 37° C., 20 hours; read-out: MIC
Description: as §1, §2

[6] = tested on: Enterobacter cloacae ATCC 27508; assay: Antibacterial activity, MIC; format: cell-based; details: ATCC27508, ATCC 27508, agar two-fold dilution, 37° C., 20 hours, read-out: MIC
Description: as §1, §2

[7] = tested on: Escherichia coli ATCC 10536; assay: Antibacterial activity, MIC; format: cell-based; details: ATCC10536, agar two-fold dilution, 37° C., 20 hours
Description: as §1, §2

[8] = tested on: Escherichia coli ATCC 25922; assay: Antibacterial activity, MIC; format: cell-based; details: ATCC25922, agar two-fold dilution, 37° C., 20 hours
Description: as §1, §2

[9] = tested on: Klebsiella pneumoniae ATCC 10031; assay: Antibacterial activity, MIC; format: cell-based; details: ATCC10031, ATCC 10031, agar two-fold dilution, 37° C., 20 hours, read-out: MIC
Description: as §1, §2

[10] = tested on: Micrococcus luteus ATCC 9341; assay: Antibacterial activity, MIC; format: cell-based; details: ATCC9341, ATCC 9341, agar two-fold dilution, 37° C., 20 hours, read-out: MIC
Description: as §1, §2

[11] = tested on: Morganella morganii ATCC 8076h; assay: Antibacterial activity, MIC; format: cell-based; details: ATCC8076H, agar two-fold dilution, 37° C., 20 hours
Description: as §1, §2

[12] = tested on: Proteus mirabilis ATCC 25933; assay: Antibacterial activity, MIC; format: cell-based; details: ATCC25933, ATCC 25933, agar two-fold dilution, 37° C., 20 hours, read-out: MIC
Description: as §1, §2

[13] = tested on: Proteus vulgaris ATCC 6059; assay: Antibacterial activity, MIC; format: cell-based; details: ATCC6059, ATCC 6059, agar two-fold dilution, 37° C., 20 hours, read-out: MIC
Description: as §1, §2

[14] = tested on: Providencia rettgeri ATCC 9250; assay: Antibacterial activity, MIC; format: cell-based; details: ATCC9250, agar two-fold dilution, 37° C., 20 hours
Description: as §1, §2

[15] = tested on: Pseudomonas aeruginosa ATCC 10145; assay: Antibacterial activity, MIC; format: cell-based; details: ATCC10145, ATCC 10145, agar two-fold dilution, 37° C., 20 hours, read-out: MIC
Description: as §1, §2

[16] = tested on: Pseudomonas aeruginosa ATCC 25619; assay: Antibacterial activity, MIC; format: cell-based; details: ATCC25619, ATCC 25619, agar two-fold dilution, 37° C., 20 hours, read-out: MIC
Description: as §1, §2

[17] = tested on: Pseudomonas aeruginosa ATCC 27853; assay: Antibacterial activity, MIC; format: cell-based; details: ATCC27853, ATCC 27853, agar two-fold dilution, 37° C., 20 hours, read-out: MIC
Description: as §1, §2

[18] = tested on: Salmonella typhimurium ATCC 14028; assay: Antibacterial activity, MIC; format: cell-based; details: Salmonella enterica; ATCC 14028; agar two-fold dilution, 37° C., 20 hours; read-out: MIC
Description: as §1, §2

[19] = tested on: Serratia marcescens ATCC 27117; assay: Antibacterial activity, MIC; format: cell-based; details: ATCC27117, ATCC 27117, agar two-fold dilution, 37° C., 20 hours, read-out: MIC
Description: as §1, §2

[20] = tested on: Shigella flexneri ATCC 11836; assay: Antibacterial activity, MIC; format: cell-based; details: ATCC11836, agar two-fold dilution, 37° C., 20 hours
Description: as §1, §2

[21] = tested on: Shigella sonnei ATCC 11060; assay: Antibacterial activity, MIC; format: cell-based
Description: as §1, §2

[22] = tested on: Staphylococcus aureus ATCC 10537; assay: Antibacterial activity, MIC; format: cell-based; details: ATCC10537, ATCC 10537, agar two-fold dilution, 37° C., 20 hours, read-out: MIC
Description: as §1, §2

[23] = tested on: Staphylococcus aureus ATCC 6538p; assay: Antibacterial activity, MIC; format: cell-based; details: ATCC6538P, ATCC 6538p, agar two-fold dilution, 37° C., 20 hours, read-out: MIC
Description: as §1, §2

[24] = tested on: Staphylococcus epidermidis ATCC 12228; assay: Antibacterial activity, MIC; format: cell-based; details: ATCC12228, ATCC 12228, agar two-fold dilution, 37° C., 20 hours, read-out: MIC
Description: as §1, §2

[25] = tested on: Streptococcus faecalis ATCC 29212; assay: Antibacterial activity, MIC; format: cell-based; details: Enterococcus faecalis, ATCC29212; ATCC 29212; agar two-fold dilution, 37° C., 20 hours; read-out: MIC
Description: as §1, §2

[26] = In-vivo absorbency (plasma concentrations & pharmacokinetic parameters); parameters: species or system SD rat (male); details: plasma, SD male rat, iv 20 mg/kg; for half-life: rat, iv, 20 mg/kg
Source text: The blood samples from the femoral vein of the rats were taken every hour after administration, and analyzed by bio-assay(agar well method).
Tested animal: SD male Rat (220~340 g)

[27] = as above; parameters: species or system SD rat (male); details: plasma, SD male rat, iv 20 mg/kg, read-out: Plasma Conc.
[28] = ATCC11060, ATCC 11060, agar two-fold dilution, 37° C., 20 hours, read-out: MIC

SMILES	MIC [1] [µg/mL]	MIC [2] [µg/mL]	MIC [4] [µg/mL]	MIC [5] [µg/mL]	MIC [6] [µg/mL]	MIC [7] [µg/mL]	MIC [8] [µg/mL]	MIC [9] [µg/mL]	MIC [10] [µg/mL]	MIC [11] [µg/mL]	MIC [12] [µg/mL]	MIC [13] [µg/mL]	MIC [14] [µg/mL]	MIC [15] [µg/mL]	MIC [16] [µg/mL]	MIC [17] [µg/mL]	MIC [18] [µg/mL]	MIC [19] [µg/mL]	MIC [20] [µg/mL]	MIC [22] [µg/mL]	further results
CCO/N=C(\C(=O)NC1C(=O)N2C(C(=O)[O-])=C(CSc3nc(N)cc(N)[n+]3CC)CSC12)c1csc(N)n1 (stereo not shown) [Compound I-12]	4 (≈ 6.9 µM)	16 (≈ 27.6 µM)	0.063 (≈ 0.109 µM)	0.5 (≈ 0.863 µM)	≤ 0.008	0.063 (≈ 0.109 µM)	0.13 (≈ 0.224 µM)	≤ 0.008	≤ 0.008	≤ 0.008	0.13 (≈ 0.224 µM)	0.25 (≈ 0.431 µM)	≤ 0.008	8 (≈ 13.8 µM)	1 (≈ 1.73 µM)	2 (≈ 3.45 µM)	0.5 (≈ 0.863 µM)	0.13 (≈ 0.224 µM)	0.031 (≈ 0.0535 µM)	0.25 (≈ 0.431 µM)	MIC [3]: 0.063 µg/mL (≈ 0.109 µM); MIC ([21]; ATCC11060, 20 h): 0.13 µg/mL (≈ 0.224 µM); MIC [23]: 0.25 µg/mL (≈ 0.431 µM); MIC [24]: 0.063 µg/mL (≈ 0.109 µM); MIC [25]: 32 µg/mL (≈ 55.2 µM)
CC(C)(O/N=C(\C(=O)NC1C(=O)N2C(C(=O)[O-])=C(CSc3nc(N)cc(N)[n+]3N)CSC12)c1nsc(N)n1)C(=O)O (stereo not shown) [Compound I-13]	4 (≈ 6.39 µM)	> 128	0.13 (≈ 0.208 µM)	1 (≈ 1.6 µM)	0.031 (≈ 0.0495 µM)	0.13 (≈ 0.208 µM)	0.13 (≈ 0.208 µM)	0.063 (≈ 0.101 µM)	1 (≈ 1.6 µM)	0.016 (≈ 0.0256 µM)	0.13 (≈ 0.208 µM)	0.13 (≈ 0.208 µM)	≤ 0.008	2 (≈ 3.2 µM)	2 (≈ 3.2 µM)	1 (≈ 1.6 µM)	0.5 (≈ 0.799 µM)	0.25 (≈ 0.4 µM)	0.063 (≈ 0.101 µM)	8 (≈ 12.8 µM)	MIC [3]: 1 µg/mL (≈ 1.6 µM); MIC [23]: 16 µg/mL (≈ 25.6 µM); MIC [24]: 4 µg/mL (≈ 6.39 µM); MIC [25]: > 128 µg/mL
CO/N=C(\C(=O)NC1C(=O)N2C(C(=O)[O-])=C(CSc3nc(N)cc(N)[n+]3N)CSC12)c1csc(N)n1 (stereo not shown) [Compound I-19]	4 (≈ 7.24 µM)	8 (≈ 14.5 µM)	0.13 (≈ 0.235 µM)	0.25 (≈ 0.452 µM)	0.016 (≈ 0.029 µM)	0.13 (≈ 0.235 µM)	0.13 (≈ 0.235 µM)	≤ 0.008	0.016 (≈ 0.029 µM)	0.008 (≈ 0.0145 µM)	0.13 (≈ 0.235 µM)	0.016 (≈ 0.029 µM)	≤ 0.008	2 (≈ 3.62 µM)	0.5 (≈ 0.905 µM)	1 (≈ 1.81 µM)	0.25 (≈ 0.452 µM)	0.25 (≈ 0.452 µM)	0.016 (≈ 0.029 µM)	0.5 (≈ 0.905 µM)	MIC [3]: 0.13 µg/mL (≈ 0.235 µM); MIC [21, 28]: 0.063 µg/mL (≈ 0.114 µM); MIC [23]: 0.25 µg/mL (≈ 0.452 µM); MIC [24]: 0.063 µg/mL (≈ 0.114 µM); MIC [25]: 32 µg/mL (≈ 57.9 µM)
Cc1c(N)nc(SCC2=C(C(=O)[O-])N3C(=O)C(NC(=O)/C(=N\OC(C)(C)C(=O)O)c4csc(N)n4)C3SC2)[n+](N)c1N (stereo not shown) [Compound I-34]	4 (≈ 6.26 µM)	128 (≈ 200 µM)	0.063 (≈ 0.0986 µM)	1 (≈ 1.57 µM)	0.016 (≈ 0.0251 µM)	0.063 (≈ 0.0986 µM)	0.13 (≈ 0.204 µM)	0.063 (≈ 0.0986 µM)	0.5 (≈ 0.783 µM)	≤ 0.008	0.031 (≈ 0.0485 µM)	0.063 (≈ 0.0986 µM)	≤ 0.008	2 (≈ 3.13 µM)	2 (≈ 3.13 µM)	2 (≈ 3.13 µM)	0.13 (≈ 0.204 µM)	0.13 (≈ 0.204 µM)	0.031 (≈ 0.0485 µM)	2 (≈ 3.13 µM)	MIC [21, 28]: 0.063 µg/mL (≈ 0.0986 µM); MIC [23]: 4 µg/mL (≈ 6.26 µM); MIC [24]: 2 µg/mL (≈ 3.13 µM); MIC [25]: > 128 µg/mL; concentration at 1 h ([26]; 60 min, read-out: Plasma Conc.): 7800 ng/mL; concentration at 2 h ([26]; 120 min, read-out: Plasma Conc.): 1200 ng/mL; AUC ([26]; two compartment model): 37200 ng·h/mL; half-life ([26]; two compartment model, read-out: T1/2 (α)): 1 min; half-life ([26]; two compartment model, read-out: T1/2 (β)): 21 min; concentration at 0.5 min ([27]; 0.5 min): 181000 ng/mL; concentration at 2.5 min ([27]; 2.5 min): 89000 ng/mL; concentration at 5 min ([27]; 5 min): 68000 ng/mL; concentration at 10 min ([27]; 10 min): 47000 ng/mL; concentration at 20 min ([27]; 20 min): 31000 ng/mL; concentration at 40 min ([27]; 40 min): 15000 ng/mL
